Data published in the NIST ThermoML archive (doi:10.1021/acs.jced.5b00737).
± gives the expanded uncertainty stated by the source.

Details: 298.15 K; Liquid; Gas chromatography

c1ccc(C2(N3CCCCC3)CCCCC2)cc1 [1-(1-phenylcyclohexyl)piperidine]
vapor or sublimation pressure: 3e-05 ± 1.2e-05 kPa

CC(Cc1ccc(C(C)(C)C)cc1)CN1CCCCC1 (configuration not stated) [1-(3-(4-(tert-butyl)phenyl)-2-methylpropyl)piperidine]
vapor or sublimation pressure: 1.6e-05 ± 8e-06 kPa
